Literature values as cited in patent publication US20120058950A1, “DETECTION OF NEUROPEPTIDES ASSOCIATED WITH PELVIC PAIN DISORDERS AND USES THEREOF” (University of Vermont and State Agricultural College, priority 2003, published 2012).
No end group written: not given here.

## Pituitary Adenylate Cyclase Activating Peptide (HSDGIFTDSYSRYRKQMAVKKYLAAVLGKRYKQRVKNK; ends and bridges not checked; UniProt P18509 132-169, looked up) [PACAP]
detrusor
  bladder activity in vitro (contraction of detrusor, alteration of electrically or cholinergically elicited contractions): no bladder activity in vitro
bladder
  activity when infused near the bladder: has activity when infused near the bladder
